Values of other authors in the PKSmart pharmacokinetics tables (Seal et al. 2025).

What was measured:
[1] = Lombardo et al. 2013, J Clin Pharmacol 53:178, doi 10.1177/0091270012440282; conditions: for Vd / clearance: in vivo, iv; for fraction unbound: plasma
[2] = Lombardo, Berellini, Obach 2018, Drug Metab Dispos 46:1466, doi 10.1124/dmd.118.082966; conditions: human; for MRT / Vd / clearance / half-life: in vivo, iv; for fraction unbound: plasma

SMILES: OC(Cn1cncn1)(Cn1cncn1)c1ccc(F)cc1F
- Vd ([1]; dog): 0.7 L/kg
- clearance ([1]; dog): 0.65 mL/min/kg
- Vd ([1]; rat): 0.97 L/kg
- clearance ([1]; rat): 4.2 mL/min/kg
- fraction unbound ([1]; rat): 0.9
- MRT [2]: 40 h
- Vd [2]: 0.75 L/kg
- clearance [2]: 0.31 mL/min/kg
- half-life [2]: 30 h

SMILES: CN1CCN(C2=Nc3cc(Cl)ccc3Nc3ccccc32)CC1
- Vd ([1]; rat): 8.68 L/kg
- MRT [2]: 11 h
- Vd [2]: 1.6 L/kg
- half-life [2]: 10 h

SMILES: c1ccc2c(c1)OCC(C1=NCCN1)O2 (centres undefined)
- Vd ([1]; rat): 3.1 L/kg
- clearance ([1]; rat): 71.2 mL/min/kg
- MRT [2]: 5.5 h
- Vd [2]: 3.3 L/kg
- clearance [2]: 10 mL/min/kg
- half-life [2]: 4.2 h

SMILES: Nc1nc(NC2CC2)c2ncn([C@H]3C=C[C@@H](CO)C3)c2n1
- clearance ([1]; rat): 30 mL/min/kg
- MRT [2]: 1.1 h
- Vd [2]: 0.84 L/kg
- clearance [2]: 13 mL/min/kg
- half-life [2]: 1 h
- fraction unbound [2]: 0.5

SMILES: CC1CC(=O)NN=C1c1ccc(NN=C(C#N)C#N)cc1 (centres undefined)
- Vd ([1]; dog): 0.22 L/kg
- clearance ([1]; dog): 3.37 mL/min/kg
- MRT [2]: 1.1 h
- Vd [2]: 0.24 L/kg
- clearance [2]: 3.8 mL/min/kg
- half-life [2]: 1.1 h
- fraction unbound [2]: 0.02

SMILES: CCN(CC)CCNC(=O)c1cc(Cl)c(N)cc1OC
- Vd ([1]; dog): 1.1 L/kg
- clearance ([1]; dog): 23.1 mL/min/kg
- Vd ([1]; rat): 3.3 L/kg
- clearance ([1]; rat): 48 mL/min/kg
- fraction unbound ([1]; rat): 0.426
- MRT [2]: 9.4 h
- Vd [2]: 3.2 L/kg
- clearance [2]: 5.7 mL/min/kg
- half-life [2]: 7.2 h

SMILES: CCCCNC(=O)NS(=O)(=O)c1ccc(C)cc1
- Vd ([1]; rat): 0.13 L/kg
- clearance ([1]; rat): 0.42 mL/min/kg
- MRT [2]: 9.5 h
- Vd [2]: 0.12 L/kg
- half-life [2]: 7 h

SMILES: O=C(O)Cc1ccccc1Nc1c(Cl)cccc1Cl
- Vd ([1]; dog): 0.19 L/kg
- clearance ([1]; dog): 1.4 mL/min/kg
- Vd ([1]; monkey): 0.32 L/kg
- clearance ([1]; monkey): 8.5 mL/min/kg
- Vd ([1]; rat): 1.39 L/kg
- clearance ([1]; rat): 16.8 mL/min/kg
- MRT [2]: 1 h
- Vd [2]: 0.22 L/kg
- clearance [2]: 3.5 mL/min/kg
- half-life [2]: 1.4 h

SMILES: C[C@H]1NCc2cc(-c3ccc4c(=O)c(C(=O)O)cn(C5CC5)c4c3OC(F)F)ccc21
- Vd ([1]; dog): 1.29 L/kg
- clearance ([1]; dog): 2.43 mL/min/kg
- fraction unbound ([1]; dog): 0.23
- Vd ([1]; monkey): 0.96 L/kg
- clearance ([1]; monkey): 3.39 mL/min/kg
- fraction unbound ([1]; monkey): 0.19
- Vd ([1]; rat): 0.9 L/kg
- clearance ([1]; rat): 12.1 mL/min/kg
- fraction unbound ([1]; rat): 0.13
- MRT [2]: 13.7 h
- Vd [2]: 1 L/kg
- clearance [2]: 1.23 mL/min/kg
- fraction unbound [2]: 0.25

SMILES: COc1c(N2CCNC(C)C2)c(F)cc2c(=O)c(C(=O)O)cn(C3CC3)c12 (centres undefined)
- Vd ([1]; dog): 2.11 L/kg
- clearance ([1]; dog): 4.2 mL/min/kg
- fraction unbound ([1]; dog): 0.84
- Vd ([1]; monkey): 1.85 L/kg
- clearance ([1]; monkey): 10.2 mL/min/kg
- fraction unbound ([1]; monkey): 0.83
- Vd ([1]; rat): 2.5 L/kg
- clearance ([1]; rat): 19.3 mL/min/kg
- fraction unbound ([1]; rat): 0.75
- MRT [2]: 11 h
- Vd [2]: 1.7 L/kg
- clearance [2]: 2.8 mL/min/kg
- half-life [2]: 10 h

SMILES: CC1=C(C(=O)O)N2C(=O)C(NC(=O)C(N)C3=CCC=CC3)[C@H]2SC1 (some centres undefined)
- Vd ([1]; rat): 1.1 L/kg
- clearance ([1]; rat): 21.7 mL/min/kg
- MRT [2]: 1.1 h
- Vd [2]: 0.21 L/kg
- clearance [2]: 3.3 mL/min/kg
- half-life [2]: 0.85 h

SMILES: O=[N+]([O-])O[C@@H]1CO[C@H]2[C@@H]1OC[C@@H]2O
- Vd ([1]; dog): 0.82 L/kg
- clearance ([1]; dog): 6.9 mL/min/kg
- clearance ([1]; rat): 2.5 mL/min/kg
- MRT [2]: 5.8 h
- Vd [2]: 0.7 L/kg
- clearance [2]: 2 mL/min/kg
- half-life [2]: 4.1 h

SMILES: NCc1ccccc1CC(=O)NC1C(=O)N2C(C(=O)O)=C(CSc3nnnn3CC(=O)O)CS[C@H]12 (some centres undefined)
- Vd ([1]; dog): 0.5 L/kg
- clearance ([1]; dog): 6.5 mL/min/kg
- Vd ([1]; rat): 0.5 L/kg
- clearance ([1]; rat): 5.4 mL/min/kg
- MRT [2]: 4.3 h
- Vd [2]: 0.17 L/kg
- clearance [2]: 0.66 mL/min/kg
- half-life [2]: 3 h
- fraction unbound [2]: 0.19

SMILES: COc1cccc2c1C(=O)c1c(O)c3c(c(O)c1C2=O)C[C@@](O)(C(=O)CO)C[C@@H]3O[C@H]1C[C@H](N)[C@H](O)[C@H](C)O1
- Vd ([1]; dog): 31.6 L/kg
- clearance ([1]; dog): 7.93 mL/min/kg
- Vd ([1]; rat): 5.5 L/kg
- clearance ([1]; rat): 32.4 mL/min/kg
- MRT [2]: 24 h
- Vd [2]: 22 L/kg
- clearance [2]: 15 mL/min/kg
- half-life [2]: 32 h

SMILES: O=[N+]([O-])O[C@H]1CO[C@H]2[C@@H]1OC[C@H]2O[N+](=O)[O-]
- Vd ([1]; dog): 3 L/kg
- clearance ([1]; dog): 180 mL/min/kg
- Vd ([1]; monkey): 1.7 L/kg
- clearance ([1]; monkey): 58.8 mL/min/kg
- Vd ([1]; rat): 2.6 L/kg
- clearance ([1]; rat): 122 mL/min/kg
- MRT [2]: 1 h
- Vd [2]: 1.9 L/kg
- clearance [2]: 31 mL/min/kg
- half-life [2]: 1.7 h
- fraction unbound [2]: 0.72

SMILES: c1ccc(C2(N3CCCCC3)CCCCC2)cc1
- Vd ([1]; dog): 16.6 L/kg
- clearance ([1]; dog): 54.1 mL/min/kg
- fraction unbound ([1]; dog): 0.43
- Vd ([1]; monkey): 6.78 L/kg
- clearance ([1]; monkey): 36.6 mL/min/kg
- fraction unbound ([1]; monkey): 0.314
- Vd ([1]; rat): 12.6 L/kg
- clearance ([1]; rat): 66.3 mL/min/kg
- fraction unbound ([1]; rat): 0.37
- MRT [2]: 23 h
- Vd [2]: 6.9 L/kg
- clearance [2]: 5.1 mL/min/kg
- half-life [2]: 16 h

SMILES: NCCC(O)(P(=O)(O)O)P(=O)(O)O
- Vd ([1]; rat): 0.18 L/kg
- clearance ([1]; rat): 15.2 mL/min/kg
- MRT [2]: 12 h
- Vd [2]: 1.8 L/kg
- clearance [2]: 2.5 mL/min/kg
- half-life [2]: 32 h
- fraction unbound [2]: 0.7

SMILES: Cc1cc(=O)n(-c2ccccc2)n1C
- Vd ([1]; dog): 0.09 L/kg
- clearance ([1]; dog): 6.3 mL/min/kg
- fraction unbound ([1]; dog): 0.6
- Vd ([1]; monkey): 0.74 L/kg
- clearance ([1]; monkey): 4.6 mL/min/kg
- fraction unbound ([1]; monkey): 0.908
- Vd ([1]; rat): 0.81 L/kg
- clearance ([1]; rat): 9.1 mL/min/kg
- fraction unbound ([1]; rat): 1
- MRT [2]: 20 h
- Vd [2]: 0.77 L/kg
- clearance [2]: 0.64 mL/min/kg
- half-life [2]: 12 h

SMILES: C[C@@H](CN1CC(=O)NC(=O)C1)N1CC(=O)NC(=O)C1
- Vd ([1]; dog): 0.72 L/kg
- clearance ([1]; dog): 11.5 mL/min/kg
- MRT [2]: 3 h
- Vd [2]: 0.55 L/kg
- clearance [2]: 3.1 mL/min/kg
- half-life [2]: 2.5 h

SMILES: Cc1cc(=O)c(C(=O)NC(C(=O)NC2C(=O)N3C(C(=O)O)=C(CSc4nnnn4C)CS[C@H]23)c2ccc(O)cc2)c[nH]1 (some centres undefined)
- Vd ([1]; dog): 0.49 L/kg
- clearance ([1]; dog): 5.7 mL/min/kg
- fraction unbound ([1]; dog): 0.7
- Vd ([1]; monkey): 0.1 L/kg
- clearance ([1]; monkey): 0.5 mL/min/kg
- fraction unbound ([1]; monkey): 0.07
- Vd ([1]; rat): 0.26 L/kg
- clearance ([1]; rat): 9.5 mL/min/kg
- fraction unbound ([1]; rat): 0.54
- MRT [2]: 5.2 h
- Vd [2]: 0.15 L/kg
- clearance [2]: 0.48 mL/min/kg
- half-life [2]: 5.4 h
- fraction unbound [2]: 0.03

SMILES: C=c1cc(C)[nH]c1=Cc1c(O)[nH]c2ccccc12
- Vd ([1]; dog): 1.4 L/kg
- clearance ([1]; dog): 52 mL/min/kg
- Vd ([1]; monkey): 1.63 L/kg
- clearance ([1]; monkey): 27.7 mL/min/kg
- Vd ([1]; rat): 1.6 L/kg
- clearance ([1]; rat): 45 mL/min/kg
- fraction unbound ([1]; rat): 0.007
- MRT [2]: 1.17 h
- Vd [2]: 0.98 L/kg
- clearance [2]: 14 mL/min/kg
- half-life [2]: 0.83 h
- fraction unbound [2]: 0.008

SMILES: CCCCCN(CCCOC)C(=O)C(CCC(=O)O)NC(=O)c1ccc(Cl)c(Cl)c1 (centres undefined)
- Vd ([1]; dog): 0.34 L/kg
- clearance ([1]; dog): 30.7 mL/min/kg
- fraction unbound ([1]; dog): 0.021
- Vd ([1]; rat): 0.98 L/kg
- clearance ([1]; rat): 6.01 mL/min/kg
- fraction unbound ([1]; rat): 0.0093
- MRT [2]: 2.4 h
- Vd [2]: 0.21 L/kg
- clearance [2]: 2.35 mL/min/kg
- half-life [2]: 3.2 h

SMILES: CCOC(=O)c1ncn2c1CN(C)C(=O)c1cc(F)ccc1-2
- Vd ([1]; dog): 1 L/kg
- clearance ([1]; dog): 16 mL/min/kg
- fraction unbound ([1]; dog): 0.685
- Vd ([1]; rat): 1.3 L/kg
- clearance ([1]; rat): 147 mL/min/kg
- MRT [2]: 1 h
- clearance [2]: 16 mL/min/kg
- half-life [2]: 0.78 h

SMILES: O=P(O)(O)C(O)(Cn1ccnc1)P(=O)(O)O
- Vd ([1]; dog): 0.28 L/kg
- clearance ([1]; dog): 4.13 mL/min/kg
- MRT [2]: 4.5 h
- Vd [2]: 0.6 L/kg
- clearance [2]: 2.2 mL/min/kg
- half-life [2]: 11 h
- fraction unbound [2]: 0.78

SMILES: CCCCN1CCCCC1C(=O)Nc1c(C)cccc1C (centres undefined)
- Vd ([1]; dog): 0.7 L/kg
- clearance ([1]; dog): 32 mL/min/kg
- fraction unbound ([1]; dog): 0.11
- Vd ([1]; monkey): 0.66 L/kg
- clearance ([1]; monkey): 10 mL/min/kg
- fraction unbound ([1]; monkey): 0.051
- Vd ([1]; rat): 2.4 L/kg
- clearance ([1]; rat): 76 mL/min/kg
- fraction unbound ([1]; rat): 0.23
- MRT [2]: 2.12 h
- Vd [2]: 0.665 L/kg
- clearance [2]: 6.5 mL/min/kg
- half-life [2]: 1.95 h
- fraction unbound [2]: 0.043

SMILES: COc1cccc2c1C(=O)c1c(O)c3c(c(O)c1C2=O)C[C@@](O)(C(=O)CO)C[C@@H]3O[C@H]1C[C@H](N)[C@H](I)[C@H](C)O1
- Vd ([1]; dog): 2.6 L/kg
- clearance ([1]; dog): 6.5 mL/min/kg
- Vd ([1]; monkey): 14 L/kg
- clearance ([1]; monkey): 43.3 mL/min/kg
- Vd ([1]; rat): 14 L/kg
- clearance ([1]; rat): 36.6 mL/min/kg
- MRT [2]: 6.4 h
- Vd [2]: 53.6 L/kg
- clearance [2]: 140 mL/min/kg
- half-life [2]: 10.3 h

SMILES: O=C1c2c(O)ccc(O)c2C(=O)c2c(NCCNCCO)ccc(NCCNCCO)c21
- Vd ([1]; dog): 26.6 L/kg
- clearance ([1]; dog): 10 mL/min/kg
- MRT [2]: 25 h
- Vd [2]: 12 L/kg
- clearance [2]: 7.9 mL/min/kg
- half-life [2]: 53 h
- fraction unbound [2]: 0.25
